Experimental data taken from ChEMBL document CHEMBL1201862, “PubChem BioAssay data set” (2004).
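Exposure lasted 48 hours, with cells grown in 96-well plates and compounds tested at five concentrations. The concentration for 50% growth inhibition is given as GI50.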 The source made the active and inactive calls. No stated cut-off is given here; in the data, active = GI50 up to about 1.1 µM and inactive = higher.

Key:
Assay in all cases: inhibition of tumour cell growth, NCI panel, 48 h
A498 = test system: A498
ACHN = test system: ACHN
BT-549 = test system: BT-549
EKVX = test system: EKVX
HCT-116 = test system: HCT-116
HCT-15 = test system: HCT-15
HOP-92 = test system: HOP-92
HT-29 = test system: HT-29
K562 = test system: K562
KM12 = test system: KM12
NCI-H226 = test system: NCI-H226
OVCAR-5 = test system: OVCAR-5
PC-3 = test system: PC-3
RPMI-8226 = test system: RPMI-8226
SF-539 = test system: SF-539
SK-MEL-5 = test system: SK-MEL-5
SNB-75 = test system: SNB-75
SN12C = test system: SN12C
SNB-19 = test system: SNB-19

SMILES | GI50 (A498) | GI50 (ACHN) | GI50 (BT-549) | GI50 (EKVX) | GI50 (HCT-116) | GI50 (HCT-15) | GI50 (HOP-92) | GI50 (HT-29) | GI50 (K562) | GI50 (KM12) | GI50 (NCI-H226) | GI50 (OVCAR-5) | GI50 (PC-3) | GI50 (RPMI-8226) | GI50 (SF-539) | GI50 (SK-MEL-5) | GI50 (SNB-75) | GI50 (SN12C) | GI50 (SNB-19)
CC1(C)C2CCC1(C)[C@H](n1c(=O)n([C@@H]3CC4CCC3(C)C4(C)C)c(=O)n([C@@H]3CC4CCC3(C)C4(C)C)c1=O)C2 | 88.5 µM (inactive) | 37.8 µM (inactive) | 67.1 µM (inactive) | 30 µM (inactive) | 36.7 µM (inactive) | 49.2 µM | 87.7 µM (inactive) | 56.8 µM (inactive) | 85.9 µM (inactive) | 58.1 µM (inactive) | 27.7 µM (inactive) | 64 µM (inactive) | 67.9 µM (inactive) | 57.9 µM (inactive) | 17.8 µM (inactive) | 34 µM (inactive) | 16.2 µM (inactive) |  | 
O=[N+]([O-])c1ccc2c(c1)n1c(N3CCCC3)[n+]3ccccc3c1c1c3ccccn3c(N3CCCC3)[n+]21.[O-][Cl+3]([O-])([O-])[O-].[O-][Cl+3]([O-])([O-])[O-] | > 100 µM (inactive) | 10 µM (inactive) | > 100 µM (inactive) | > 100 µM (inactive) | > 100 µM (inactive) | > 100 µM | > 100 µM (inactive) |  | 23.7 µM (inactive) | > 100 µM (inactive) | 44.3 µM (inactive) | > 100 µM (inactive) | > 100 µM (inactive) | > 100 µM (inactive) | 39.5 µM (inactive) | > 100 µM (inactive) | 44 µM (inactive) | 51.8 µM (inactive) | 45 µM (inactive)
COc1cc([C@H]2c3cc(O)c(OC)cc3C[C@]3(O)[C@@H]2CO[C@@H]3O)ccc1O | > 100 µM (inactive) | > 100 µM (inactive) | > 100 µM (inactive) | > 100 µM (inactive) | > 100 µM (inactive) | > 100 µM | > 100 µM (inactive) | > 100 µM (inactive) | > 100 µM (inactive) | > 100 µM (inactive) | > 100 µM (inactive) | > 100 µM (inactive) | > 100 µM (inactive) | > 100 µM (inactive) | > 100 µM (inactive) | > 100 µM (inactive) | > 100 µM (inactive) | > 100 µM (inactive) | > 100 µM (inactive)
CCc1nc(N)nc(N)c1-c1ccc(Cl)c([N+](=O)[O-])c1 | 2.49 µM (inactive) | 0.1 µM (active) | 31.2 µM (inactive) | 3.38 µM (inactive) | 0.0224 µM (active) | 0.0685 µM | 5.16 µM (inactive) | 0.0588 µM (active) | 0.0156 µM (active) | 0.535 µM (active) | 18.2 µM (inactive) | 6.11 µM (inactive) | 0.0897 µM (active) | 0.676 µM (active) | 0.325 µM (active) | 0.417 µM (active) | 4.29 µM (inactive) | 1.79 µM (inactive) | 10.5 µM (inactive)
COc1cc2c(c(OC)c1OC)-c1c(cc3c(c1OC)OCO3)CC(C)C(C)(O)C2OC(=O)c1ccccc1 (stereo not drawn) | 39.8 µM (inactive) | 32 µM (inactive) | 56.1 µM (inactive) | 36 µM (inactive) | 31.4 µM (inactive) | 33.2 µM | 12.2 µM (inactive) | 25.8 µM (inactive) | 46.3 µM (inactive) | 41.1 µM (inactive) | 29.4 µM (inactive) | > 100 µM (inactive) | 26.6 µM (inactive) | 22 µM (inactive) | > 100 µM (inactive) | 31.1 µM (inactive) | 41 µM (inactive) | 40.5 µM (inactive) | 37.8 µM (inactive)
COc1ccc(N2C(=O)C3c4[nH]c5ccc(OCc6ccccc6)cc5c4C4CCC(c5ccccc5)CC4C3C2=O)cc1 (stereo not drawn) | 23.9 µM (inactive) | 7.21 µM (inactive) | 4.55 µM (inactive) | 19.6 µM (inactive) | 11.1 µM (inactive) | 11.6 µM | 3.08 µM (inactive) | 11 µM (inactive) | 4.37 µM (inactive) | 27 µM (inactive) | 19.2 µM (inactive) | 30.5 µM (inactive) | 8.53 µM (inactive) | 6.61 µM (inactive) | 3.01 µM (inactive) | 8.22 µM (inactive) | 7.82 µM (inactive) | 33.7 µM (inactive) | 11 µM (inactive)
O=P1(Oc2ccccc2)NCc2ncccc2O1 (stereo not drawn) | > 100 µM (inactive) | > 100 µM (inactive) | > 100 µM (inactive) | > 100 µM (inactive) | > 100 µM (inactive) | > 100 µM | > 100 µM (inactive) | > 100 µM (inactive) | > 100 µM (inactive) | > 100 µM (inactive) | > 100 µM (inactive) | > 100 µM (inactive) | > 100 µM (inactive) | > 100 µM (inactive) | > 100 µM (inactive) | > 100 µM (inactive) | > 100 µM (inactive) | > 100 µM (inactive) | > 100 µM (inactive)
O=C(NCc1cccnc1)C(=O)NCc1cccnc1 | > 100 µM (inactive) | > 100 µM (inactive) | > 100 µM (inactive) | > 100 µM (inactive) | > 100 µM (inactive) | > 100 µM | > 100 µM (inactive) | > 100 µM (inactive) | > 100 µM (inactive) | > 100 µM (inactive) | > 100 µM (inactive) | > 100 µM (inactive) | > 100 µM (inactive) | > 100 µM (inactive) | > 100 µM (inactive) | > 100 µM (inactive) | > 100 µM (inactive) | > 100 µM (inactive) | > 100 µM (inactive)
CN1CC2CN(Cc3ccccc3)CCN2c2cccnc21 (stereo not drawn) | 95.3 µM (inactive) | 45.2 µM (inactive) | 33.3 µM (inactive) | 53 µM (inactive) | 10.6 µM (inactive) | 28.6 µM | 47.4 µM (inactive) | 29.1 µM (inactive) | 29.2 µM (inactive) | 23.9 µM (inactive) | 57.7 µM (inactive) | > 100 µM (inactive) | 45.9 µM (inactive) | 27.5 µM (inactive) | 62.8 µM (inactive) | 31.1 µM (inactive) | 41.3 µM (inactive) |  | 64.7 µM (inactive)
CCOc1ccc(N2C(=O)NC3(c4ccccc4)N(C)C(=O)N(C)C23c2ccccc2)cc1 (stereo not drawn) | > 100 µM (inactive) | > 100 µM (inactive) | 83.9 µM (inactive) | > 100 µM (inactive) | 78 µM (inactive) |  | > 100 µM (inactive) | 94.2 µM (inactive) | 74 µM (inactive) | 55.3 µM (inactive) | 61 µM (inactive) | > 100 µM (inactive) | 41 µM (inactive) | 57.1 µM (inactive) | > 100 µM (inactive) | 68.9 µM (inactive) | 12.4 µM (inactive) | > 100 µM (inactive) | > 100 µM (inactive)
CC1(C)CC(=O)c2c(N)n[nH]c2C1 | > 100 µM (inactive) | > 100 µM (inactive) | > 100 µM (inactive) | > 100 µM (inactive) | > 100 µM (inactive) |  | > 100 µM (inactive) | > 100 µM (inactive) | > 100 µM (inactive) | > 100 µM (inactive) | > 100 µM (inactive) | > 100 µM (inactive) | > 100 µM (inactive) | > 100 µM (inactive) | > 100 µM (inactive) | > 100 µM (inactive) | > 100 µM (inactive) | > 100 µM (inactive) | > 100 µM (inactive)
